The source of these data is ChEMBL document CHEMBL1201862, “PubChem BioAssay data set” (2004).

Active and inactive are the calls of the source.

Test [1] in a line: C. albicans growth with fluconazole, confirmation, fluorescence, retest (AID 2467). The class given is functional, cell-based.
In test [2] the target is T1, Sentrin-specific protease 7 (Homo sapiens, UniProt Q9BQF6).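 Also: Luminescence-based dose-response confirmation of ultra-high-throughput screening hits, measuring inhibition of SENP7.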
T1 sequence (Q9BQF6 whole entry): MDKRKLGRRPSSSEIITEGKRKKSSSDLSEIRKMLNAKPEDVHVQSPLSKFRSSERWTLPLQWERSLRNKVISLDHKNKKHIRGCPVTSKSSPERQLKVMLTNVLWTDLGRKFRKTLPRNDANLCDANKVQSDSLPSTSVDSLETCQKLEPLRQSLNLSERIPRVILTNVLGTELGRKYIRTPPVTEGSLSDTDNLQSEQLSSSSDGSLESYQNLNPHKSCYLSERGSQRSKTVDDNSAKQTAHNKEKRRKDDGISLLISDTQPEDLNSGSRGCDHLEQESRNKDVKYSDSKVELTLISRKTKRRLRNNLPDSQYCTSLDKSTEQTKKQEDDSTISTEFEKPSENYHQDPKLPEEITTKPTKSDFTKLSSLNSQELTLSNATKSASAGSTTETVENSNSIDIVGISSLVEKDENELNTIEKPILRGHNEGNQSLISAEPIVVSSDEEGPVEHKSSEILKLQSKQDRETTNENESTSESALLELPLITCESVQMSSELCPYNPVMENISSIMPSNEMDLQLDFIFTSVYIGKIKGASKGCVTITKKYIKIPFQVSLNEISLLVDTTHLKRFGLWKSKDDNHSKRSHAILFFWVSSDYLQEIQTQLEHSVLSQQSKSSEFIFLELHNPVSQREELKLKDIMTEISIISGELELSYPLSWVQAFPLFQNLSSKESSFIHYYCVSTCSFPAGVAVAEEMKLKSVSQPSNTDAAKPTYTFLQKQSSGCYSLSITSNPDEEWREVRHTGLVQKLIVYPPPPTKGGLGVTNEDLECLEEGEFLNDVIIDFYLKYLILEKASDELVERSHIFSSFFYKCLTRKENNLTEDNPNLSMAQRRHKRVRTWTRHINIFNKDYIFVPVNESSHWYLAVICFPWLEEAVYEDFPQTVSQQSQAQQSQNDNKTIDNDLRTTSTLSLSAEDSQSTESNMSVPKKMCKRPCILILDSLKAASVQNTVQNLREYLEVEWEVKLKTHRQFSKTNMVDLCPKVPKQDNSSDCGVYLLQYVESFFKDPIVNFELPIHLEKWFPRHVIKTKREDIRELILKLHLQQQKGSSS
The class given is functional.

Test [3] addresses T2, Sentrin-specific protease 8 (Homo sapiens, UniProt Q96LD8).
T2 sequence (Q96LD8 whole entry): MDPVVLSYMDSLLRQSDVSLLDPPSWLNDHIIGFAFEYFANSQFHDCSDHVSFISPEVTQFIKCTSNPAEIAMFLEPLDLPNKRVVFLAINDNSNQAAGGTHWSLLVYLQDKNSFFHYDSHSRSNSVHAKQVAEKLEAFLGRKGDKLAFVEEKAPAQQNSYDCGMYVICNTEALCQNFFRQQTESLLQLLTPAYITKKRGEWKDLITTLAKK
In kind it is functional.

Test [4] has as its target T3, Histone-lysine N-methyltransferase NSD2 (Homo sapiens, UniProt O96028).
T3 sequence (O96028 whole entry): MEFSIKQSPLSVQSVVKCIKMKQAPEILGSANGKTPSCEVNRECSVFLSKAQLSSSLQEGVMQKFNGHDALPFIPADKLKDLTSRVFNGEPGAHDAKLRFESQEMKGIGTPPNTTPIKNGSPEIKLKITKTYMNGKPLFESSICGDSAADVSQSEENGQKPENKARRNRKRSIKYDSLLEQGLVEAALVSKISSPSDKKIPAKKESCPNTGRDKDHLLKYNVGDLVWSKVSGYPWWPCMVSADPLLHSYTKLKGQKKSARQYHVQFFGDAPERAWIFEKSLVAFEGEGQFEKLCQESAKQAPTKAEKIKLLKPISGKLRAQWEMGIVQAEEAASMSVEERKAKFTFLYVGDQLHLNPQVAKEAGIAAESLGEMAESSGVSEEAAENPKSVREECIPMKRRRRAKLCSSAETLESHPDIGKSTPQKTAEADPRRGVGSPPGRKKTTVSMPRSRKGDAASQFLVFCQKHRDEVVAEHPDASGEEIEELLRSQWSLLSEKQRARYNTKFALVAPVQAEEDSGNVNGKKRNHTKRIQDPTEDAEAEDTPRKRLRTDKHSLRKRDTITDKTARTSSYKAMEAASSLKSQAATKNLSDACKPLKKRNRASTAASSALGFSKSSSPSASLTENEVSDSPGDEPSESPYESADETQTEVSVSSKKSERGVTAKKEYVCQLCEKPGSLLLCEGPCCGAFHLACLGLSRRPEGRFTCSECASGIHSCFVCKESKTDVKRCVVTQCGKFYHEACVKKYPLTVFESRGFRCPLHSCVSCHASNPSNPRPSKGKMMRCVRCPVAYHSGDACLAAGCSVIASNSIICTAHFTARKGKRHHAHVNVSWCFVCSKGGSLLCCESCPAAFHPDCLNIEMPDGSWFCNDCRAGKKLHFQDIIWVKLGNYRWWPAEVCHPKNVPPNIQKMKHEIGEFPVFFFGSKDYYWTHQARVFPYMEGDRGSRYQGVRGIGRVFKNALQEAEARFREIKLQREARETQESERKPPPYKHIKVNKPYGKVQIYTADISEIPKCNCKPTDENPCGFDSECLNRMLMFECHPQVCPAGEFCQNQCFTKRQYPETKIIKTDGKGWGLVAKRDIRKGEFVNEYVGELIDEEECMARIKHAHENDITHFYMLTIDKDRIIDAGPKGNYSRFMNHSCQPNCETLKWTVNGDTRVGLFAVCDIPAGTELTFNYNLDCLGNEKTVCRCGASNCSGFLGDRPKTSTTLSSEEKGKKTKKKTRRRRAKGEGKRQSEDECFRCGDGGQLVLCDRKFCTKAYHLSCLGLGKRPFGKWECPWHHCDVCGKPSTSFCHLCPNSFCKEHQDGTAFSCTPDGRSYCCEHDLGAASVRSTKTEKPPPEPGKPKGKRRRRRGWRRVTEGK
The class given is biochemical.

Test [5] addresses Heat shock protein HSP 90-alpha (Homo sapiens, UniProt P07900). The test can be described thus: Luminescence-based dose response biochemical high throughput screening assay for inhibitors of the Heat Shock Protein 90 (HSP90). [Related pubchem assays: 1831 (Summary AID.), 1846 (Confirmation screen.), 1789 (Primary screen.)].
Test [6] addresses Photoreceptor-specific nuclear receptor (Homo sapiens, UniProt Q9Y5X4). The class given is functional, cell-based.

Chain of Photoreceptor-specific nuclear receptor (Q9Y5X4 whole entry): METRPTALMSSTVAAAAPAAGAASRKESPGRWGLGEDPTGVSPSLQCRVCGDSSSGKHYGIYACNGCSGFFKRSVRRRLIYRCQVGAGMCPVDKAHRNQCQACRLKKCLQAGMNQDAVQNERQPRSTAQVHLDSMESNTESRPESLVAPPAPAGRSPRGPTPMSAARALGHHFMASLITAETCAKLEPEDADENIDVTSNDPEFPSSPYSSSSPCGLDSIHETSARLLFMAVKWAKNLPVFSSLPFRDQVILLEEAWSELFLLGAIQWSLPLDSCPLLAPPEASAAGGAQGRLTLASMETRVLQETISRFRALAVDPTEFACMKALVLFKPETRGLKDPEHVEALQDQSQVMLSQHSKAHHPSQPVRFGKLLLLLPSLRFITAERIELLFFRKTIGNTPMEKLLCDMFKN

Regarding `Cc1ccc(NC2=CC(=O)C(=O)c3ccccc32)cc1`, the EC50 in test [1] is 0.451 µM (active). For the same compound, the IC50 was 36.7 µM (active) in test [2] and 21.6 µM (active) in test [3]. Further, the AC50 in test [4] is 13 µM (active).

As to `O=C(O)c1ccc(S(=O)(=O)/N=C2\C=C(Nc3ccccc3F)C(=O)c3ccccc32)cc1`, the IC50 in test [5] is 0.638 µM (active); in test [6], 12.2 µM (inactive).

The term EC50 denotes the midpoint of the concentration-response curve. In general, IC50 refers to the concentration that gives 50% inhibition. For orientation: AC50 means the midpoint of the concentration-response curve, whichever way the signal moves.
